The source of these data is US20260274892A1, “MACROCYCLIC BROAD SPECTRUM ANTIBIOTICS” (RQx Pharmaceuticals, Inc., priority 2017, published 2026).

Structures are written as SMILES.

For test [1], the system named is Escherichia coli ATCC 25922. Put plainly: Minimum inhibitory concentration (MIC), CLSI broth micro-dilution, E. coli. It is filed as cell-based. The following applies: Escherichia coli, ATCC25922, 22 h, Table 6, cation adjusted Mueller Hinton Broth + 0.002% Tween-80, 35° C. The essentials: (§1)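 Antibacterial potency is measured as MIC by the CLSI broth dilution method. Bacteria at OD600 0.0005 in Tween-80-supplemented cation-adjusted Mueller Hinton broth face ten twofold compound dilutions for 22 h at 35° C.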
For orientation: Broth dilution looks for growth in wells or tubes with falling amounts of substance.

Test [2] has as its system Methicillin Resistant Staphylococcus aureus strain USA 200. Put plainly: Minimum inhibitory concentration (MIC), CLSI broth micro-dilution, S. aureus. It is filed as cell-based. Conditions: Staphylococcus aureus, MRSA / USA200; Table 6; MRSA USA 200; cation adjusted Mueller Hinton Broth + 0.002% Tween-80; 35° C., 22 hours. The essentials: as §1

The term MIC denotes the smallest concentration in the dilution series that meets the test's criterion for growth inhibition. As for `Cc1nc(-c2ccc(C(C)(C)C)cc2)nc(C)c1C(=O)N[C@@H](C)C(=O)N[C@@H](CCN)C(=O)N(C)[C@@H]1C(=O)N[C@@H](C)C(=O)N[C@H](C(=O)NCC#N)Cc2ccc(OCCN)c(c2)-c2cc1ccc2OCCN` (racemic) [Compound 464, rac-(8S,11S,14S)-3,18-bis(2-aminoethoxy)-N-(cyanomethyl)-11-methyl-14-[methyl-[rac-(2S)-4-amino-2-[[rac-(2S)-2-[[2-(4-tert-butylphenyl)-4,6-dimethyl-pyrimidine-5-carbonyl]amino]propanoyl]amino]butanoyl]amino]-10,13-dioxo-9,12-diazatricyclo[13.3.1.12,6]icosa-1(18),2(20),3,5,15(19),16-hexaene-8-carboxamide], the MIC is 4 µM in test [1] and 0.063 µM in test [2].
As for `Cc1nc(-c2ccc(C(C)(C)C)cc2)nc(C)c1C(=O)N[C@@H](CO)C(=O)N[C@@H](CCN)C(=O)N(C)[C@@H]1C(=O)N[C@@H](C)C(=O)N[C@H](C(=O)NCC#N)Cc2ccc(OCCN)c(c2)-c2cc1ccc2OCCN` (racemic) [Compound 465, rac-(8S,11S,14S)-3,18-bis(2-aminoethoxy)-N-(cyanomethyl)-11-methyl-14-[methyl-[rac-(2S)-4-amino-2-[[rac-(2S)-2-[[2-(4-tert-butylphenyl)-4,6-dimethyl-pyrimidine-5-carbonyl]amino]-3-hydroxy-propanoyl]amino]butanoyl]amino]-10,13-dioxo-9,12-diazatricyclo[13.3.1.12,6]icosa-1(18),2(20),3,5,15(19),16-hexaene-8-carboxamide], the MIC stood at 4 µM in test [1] and 0.047 µM in test [2].
In the case of `Cc1nc(-c2ccc(C(C)(C)C)cc2)nc(C)c1C(=O)N[C@H](CO)C(=O)N[C@@H](CCN)C(=O)N(C)[C@@H]1C(=O)N[C@@H](C)C(=O)N[C@H](C(=O)NCC#N)Cc2ccc(OCCN)c(c2)-c2cc1ccc2OCCN` (racemic) [Compound 467, rac-(8S,11S,14S)-3,18-bis(2-aminoethoxy)-N-(cyanomethyl)-11-methyl-14-[methyl-[rac-(2S)-4-amino-2-[[rac-(2R)-2-[[2-(4-tert-butylphenyl)-4,6-dimethyl-pyrimidine-5-carbonyl]amino]-3-hydroxy-propanoyl]amino]butanoyl]amino]-10,13-dioxo-9,12-diazatricyclo[13.3.1.12,6]icosa-1(18),2(20),3,5,15(19),16-hexaene-8-carboxamide], the MIC in test [1] is 8 µM; in test [2], 0.19 µM.
On the same counts, the results for `CCC[C@H](NC(=O)c1c(C)nc(-c2ccc(C(C)(C)C)cc2)nc1C)C(=O)N[C@@H](CCN)C(=O)N(C)[C@@H]1C(=O)N[C@@H](C)C(=O)N[C@H](C(=O)NCC#N)Cc2ccc(OCCN)c(c2)-c2cc1ccc2OCCN` (racemic) [Compound 469, rac-(8S,11S,14S)-3,18-bis(2-aminoethoxy)-N-(cyanomethyl)-11-methyl-14-[methyl-[rac-(2S)-4-amino-2-[[rac-(2S)-2-[[2-(4-tert-butylphenyl)-4,6-dimethyl-pyrimidine-5-carbonyl]amino]pentanoyl]amino]butanoyl]amino]-10,13-dioxo-9,12-diazatricyclo[13.3.1.12,6]icosa-1(18),2(20),3,5,15(19),16-hexaene-8-carboxamide] are 6 µM and 0.13 µM.
Consider `Cc1nc(-c2ccc(C(C)(C)C)cc2)nc(C)c1C(=O)NCC(=O)N[C@@H](CCN)C(=O)N(C)[C@@H]1C(=O)N[C@@H](C)C(=O)N[C@H](C(=O)NCC#N)Cc2ccc(OCCN)c(c2)-c2cc1ccc2OCCN` (racemic) [Compound 470, rac-(8S,11S,14S)-3,18-bis(2-aminoethoxy)-N-(cyanomethyl)-11-methyl-14-[methyl-[rac-(2S)-4-amino-2-[[2-[[2-(4-tert-butylphenyl)-4,6-dimethyl-pyrimidine-5-carbonyl]amino]acetyl]amino]butanoyl]amino]-10,13-dioxo-9,12-diazatricyclo[13.3.1.12,6]icosa-1(18),2(20),3,5,15(19),16-hexaene-8-carboxamide], for which the MIC came out at 4 µM in test [1] and 0.047 µM in test [2].
The corresponding values for `CCCCCCc1ccc(C(=O)N[C@@H](CCN)C(=O)N[C@@H]2C(=O)N[C@@H](C)C(=O)N[C@H](C(=O)NCC#N)Cc3ccc(O)c(c3)-c3cc2ccc3O)c(C)c1` (racemic) [Compound 471, rac-(8S,11S,14S)-N-(cyanomethyl)-3,18-dihydroxy-11-methyl-10,13-dioxo-14-[[rac-(2S)-4-amino-2-[(4-hexyl-2-methyl-benzoyl)amino]butanoyl]amino]-9,12-diazatricyclo[13.3.1.12,6]icosa-1(18),2(20),3,5,15(19),16-hexaene-8-carboxamide] are 5.1 µM and 0.04 µM.
On the same counts, the results for `Cc1nc(-c2ccc(C(C)(C)C)cc2)ncc1C(=O)N[C@@H](CCN)C(=O)N[C@@H]1C(=O)N[C@@H](C)C(=O)N[C@H](C(=O)NCC#N)Cc2ccc(OCCN)c(c2)-c2cc1ccc2OCCN` (racemic) [Compound 472, rac-(8S,11S,14S)-3,18-bis(2-aminoethoxy)-N-(cyanomethyl)-11-methyl-10,13-dioxo-14-[[rac-(2S)-4-amino-2-[[2-(4-tert-butylphenyl)-4-methyl-pyrimidine-5-carbonyl]amino]butanoyl]amino]-9,12-diazatricyclo[13.3.1.12,6]icosa-1(18),2(20),3,5,15(19),16-hexaene-8-carboxamide] are 0.11 µM and 0.0085 µM.
As for `CCCCCCc1ccc(C(=O)N[C@@H](CCN)C(=O)N(CC)[C@@H]2C(=O)N[C@@H](C)C(=O)N[C@H](C(=O)NCC#N)Cc3ccc(O)c(c3)-c3cc2ccc3O)c(C)c1` (racemic) [Compound 473, rac-(8S,11S,14S)-N-(cyanomethyl)-14-[ethyl-[rac-(2S)-4-amino-2-[(4-hexyl-2-methyl-benzoyl)amino]butanoyl]amino]-3,18-dihydroxy-11-methyl-10,13-dioxo-9,12-diazatricyclo[13.3.1.12,6]icosa-1(18),2(20),3,5,15(19),16-hexaene-8-carboxamide], the results for the MIC in test [1] and in test [2] were 4.9 µM and 0.31 µM, respectively.
On the same counts, the results for `CCCCCCc1ccc(C(=O)N[C@@H](CCN)C(=O)N(CCN)[C@@H]2C(=O)N[C@@H](C)C(=O)N[C@H](C(=O)NCC#N)Cc3ccc(O)c(c3)-c3cc2ccc3O)c(C)c1` (racemic) [Compound 474, rac-(8S,11S,14S)-14-[2-aminoethyl-[rac-(2S)-4-amino-2-[(4-hexyl-2-methyl-benzoyl)amino]butanoyl]amino]-N-(cyanomethyl)-3,18-dihydroxy-11-methyl-10,13-dioxo-9,12-diazatricyclo[13.3.1.12,6]icosa-1(18),2(20),3,5,15(19),16-hexaene-8-carboxamide] are 4.8 µM and 0.11 µM.
The corresponding values for `CCCCCCc1ccc(C(=O)N[C@@H](CCN)C(=O)N(CCO)[C@@H]2C(=O)N[C@@H](C)C(=O)N[C@H](C(=O)NCC#N)Cc3ccc(O)c(c3)-c3cc2ccc3O)c(C)c1` (racemic) [Compound 475, rac-(8S,11S,14S)-N-(cyanomethyl)-3,18-dihydroxy-14-[2-hydroxyethyl-[rac-(2S)-4-amino-2-[(4-hexyl-2-methyl-benzoyl)amino]butanoyl]amino]-11-methyl-10,13-dioxo-9,12-diazatricyclo[13.3.1.12,6]icosa-1(18),2(20),3,5,15(19),16-hexaene-8-carboxamide] are 4.8 µM and 0.6 µM.
On the same counts, the results for `Cc1nc(-c2ccc(C(C)(C)C)cc2)ncc1C(=O)N[C@@H](CCN)C(=O)N(C)[C@@H]1C(=O)NCC(=O)N[C@H](C(=O)NCC#N)Cc2ccc(OCCN)c(c2)-c2cc1ccc2OCCN` (racemic) [Compound 476, rac-(8S,14S)-3,18-bis(2-aminoethoxy)-N-(cyanomethyl)-14-[methyl-[rac-(2S)-4-amino-2-[[2-(4-tert-butylphenyl)-4-methyl-pyrimidine-5-carbonyl]amino]butanoyl]amino]-10,13-dioxo-9,12-diazatricyclo[13.3.1.12,6]icosa-1(18),2(20),3,5,15(19),16-hexaene-8-carboxamide] are 1.1 µM and 0.025 µM.
As for `Cc1nc(-c2ccc(C(C)(C)C)cc2)ncc1C(=O)N[C@@H](CCN)C(=O)N(C)[C@@H]1C(=O)N[C@@H](CO)C(=O)N[C@H](C(=O)NCC#N)Cc2ccc(OCCN)c(c2)-c2cc1ccc2OCCN` (racemic) [Compound 477, rac-(8S,11S,14S)-3,18-bis(2-aminoethoxy)-N-(cyanomethyl)-11-(hydroxymethyl)-14-[methyl-[rac-(2S)-4-amino-2-[[2-(4-tert-butylphenyl)-4-methyl-pyrimidine-5-carbonyl]amino]butanoyl]amino]-10,13-dioxo-9,12-diazatricyclo[13.3.1.12,6]icosa-1(18),2(20),3,5,15(19),16-hexaene-8-carboxamide], the MIC in test [1] turned out to be 3.2 µM; in test [2], 0.26 µM.
Take `CCCCCCCc1ccc(C(=O)N[C@@H](CCN)C(=O)N(C)[C@@H]2C(=O)N[C@@H](C3CC3)C(=O)N[C@H](C(=O)NCC#N)Cc3ccc(OCCN)c(c3)-c3cc2ccc3OCCN)c(C)c1` (racemic) [Compound 478, rac-(8S,11S,14S)-3,18-bis(2-aminoethoxy)-N-(cyanomethyl)-11-cyclopropyl-14-[methyl-[rac-(2S)-4-amino-2-[(4-heptyl-2-methyl-benzoyl)amino]butanoyl]amino]-10,13-dioxo-9,12-diazatricyclo[13.3.1.12,6]icosa-1(18),2(20),3,5,15(19),16-hexaene-8-carboxamide]: the MIC in test [1] worked out at 1.1 µM; in test [2] it was 0.071 µM.
